Assay results from US9879303B2, “Chromogenic glucuronidase substrates and uses” (Glycosynth Limited, priority 2013, dated 2018).
Structures can show the parent of a compound that is named as a salt.

System: E. coli clinical isolates
Assay: screen of strains on agar plates (CPS ID 3 or Columbia agar)
Type: cell-based
Design: key to colour: Red, Green, Black or Purple mean strong colour; Red, Green, Black or Purple mean strong colour; Red, Green, Black or Purple mean strong colour; Red, Green, Black or Purple mean strong colour; +/− means less colour than strong; Tr means a trace of colour, less than +/−; — means no colour
Details: for colour: 37° C. 18 hours
Description: In order to obtain a fuller picture of the sensitivity of the substrates, they were screened with 100 different clinical isolates of E. coli in a liquid medium containing FAC. The isolates were chosen at random from the Microbiology Department, Freeman Hospital, Newcastle Upon Tyne, UK. The effectiveness of the new substrates was compared with three other media which all contained indoxyl-β-D-glucuronides. One was a commercial medium, CPS ID 3 (bioMérieux SA, Lyon, France). […] This medium was employed as a control. Among the β-D-glucuronidase producing strains of E. coli there is a large variation in the quantity of the enzyme produced and it is almost certain that the CPS ID 3 medium has been rigorously optimised to allow good growth of all the target organisms and maximum expression of the target enzymes. Therefore, two indoxyl glucuronides, X-β-D-glucuronide CHA salt and Rose-β-D-glucuronide CHA salt were also tested in a simple agar medium to allow a direct comparison of the sensitivity of these Indoxyl glucuronides when used in a medium that has not been optimised for the growth of the target organism. The comparison of the results for Rose-β-D-glucuronide and the CPS ID 3 medium was of particular significance as the commercial medium also uses Rose-β-D-glucuronide for the detection of E. coli. For consistency, the four glucuronides were all chosen as their CHA salts. As already stated, it is not anticipated that the salt form is critical to their performance. Currently. X-β-D-glucuronide is often used as either the CHA salt or the sodium salt. Brenner and colleagues [K. P. Brenner et al, Appl. Environ. Microbiol., 59, 3534-3544, (1993)] found no difference in the performance of the CHA and sodium salt forms with their application using indoxyl-β-D-glucuronide, neither in respect of colour development nor in the recovery of E. coli.
The two indoxyl glucuronides used produce insoluble endpoints following hydrolysis, as does the CPS ID 3 medium. It was therefore necessary to test these two substrates on agar plates. In contrast, catechol-β-D-glucuronide (1) and DHN-β-D-glucuronide (2b) give much more soluble endpoints best suited to liquid media and were therefore tested in a broth medium. Each broth was prepared using proteose peptone (Oxoid, Basingstoke, UK) (2 g), NaCl (1 g) and FAC (100 mg) in DI water (180 mL). This mixture was autoclaved and cooled to room temperature before being dispensed into bijoux (100×1.8 mL). Catechol β-D-glucuronide CHA salt (1) or DHN-β-D-glucuronide CHA salt (2b) (60 mg) were each dissolved in water (20 mL) and filtered to sterilize before being aseptically dispensed into successive bijoux (0.2 mL) containing the broth solution. The broth/substrate solutions were then inoculated with bacterial suspensions made up to 0.5 McFarland standard (2 μL per bijoux). X-β-D-glucuronide CHA salt (Glycosynth Ltd, Warrington, UK) (10 mg) was dissolved in NMP (200 μL). Rose-β-D-glucuronide CHA salt (Glycosynth Ltd, Warrington, UK) (20 mg) was dissolved in NMP (200 μL). These solutions were then added to Columbia agar (Oxoid, Basingstoke, UK) (100 mL) and inoculated with bacterial suspensions made up to 0.5 McFarland standard (1 μL). The plates and broths were incubated at 37° C. for 18 hours in air.

[1] = 100 E. coli strains after 18 h incubation

## O=C(O)[C@H]1O[C@@H](Oc2c[nH]c3cc(Cl)ccc23)[C@H](O)[C@@H](O)[C@@H]1O [Rose-β-D-glucuronide CHA salt, 6-chloro-3-indolyl β-D-glucuronide]
[1]
  % Sensitivity: 81%
  Negative strains: 19
  Positive strains: 81
E. coli 260262P
  colour: Red
E. coli 260280Z
  colour: Red
E. coli 260310H
  colour: Red
E. coli 260313A
  colour: —
E. coli 260316T
  colour: —
E. coli 260327V
  colour: Red
E. coli 260330Y
  colour: Red
E. coli 260333P
  colour: —
E. coli 260345F
  colour: Red
E. coli 260348K
  colour: Red
E. coli 260354W
  colour: Red
E. coli 260364H
  colour: —
E. coli 260370C
  colour: Red
E. coli 260375E
  colour: Red
E. coli 260390B
  colour: —
E. coli 260396Z
  colour: Red
E. coli 260398Q
  colour: Red
E. coli 260400N
  colour: —
E. coli 260401Q
  colour: Red
E. coli 260402H
  colour: Red
E. coli 260404W
  colour: Red
E. coli 260405P
  colour: Red
E. coli 260406A
  colour: —
E. coli 260406Y
  colour: Red
E. coli 260407F
  colour: Red
E. coli 260408C
  colour: Red
E. coli 260411Z
  colour: Red
E. coli 260412Q
  colour: Red
E. coli 260414H
  colour: Red
E. coli 260415Y
  colour: Red
E. coli 260416W
  colour: —
E. coli 260417P
  colour: Red
E. coli 260422Y
  colour: Red
E. coli 260424P
  colour: Red
E. coli 260425A
  colour: Red
E. coli 260426F
  colour: Red
E. coli 260428T
  colour: Red
E. coli 260431N
  colour: Red
E. coli 260432E
  colour: Red
E. coli 260433H
  colour: Red
E. coli 260434Y
  colour: Red
E. coli 260435W
  colour: Red
E. coli 260436P
  colour: Red
E. coli 260437A
  colour: Tr. Red
E. coli 260438F
  colour: Red
E. coli 260439C
  colour: Red
E. coli 260440S
  colour: Red
E. coli 260441G
  colour: Red
E. coli 260458Y
  colour: Red
E. coli 260459W
  colour: Red
E. coli 260463D
  colour: Red
E. coli 260464G
  colour: Red
E. coli 260471B
  colour: —
E. coli 260478N
  colour: —
E. coli 260479Q
  colour: Red
E. coli 260480M
  colour: Red
E. coli 260481J
  colour: Red
E. coli 260483R
  colour: —
E. coli 260485D
  colour: Red
E. coli 260486L
  colour: Red
E. coli 260492J
  colour: Red
E. coli 260494B
  colour: Red
E. coli 260495R
  colour: —
E. coli 260497D
  colour: Red
E. coli 260502G
  colour: Red
E. coli 260503Z
  colour: Red
E. coli 260504N
  colour: Red
E. coli 260505Q
  colour: —
E. coli 260506E
  colour: Red
E. coli 260508Y
  colour: Red
E. coli 260509W
  colour: Red
E. coli 260510R
  colour: Red
E. coli 260511X
  colour: Red
E. coli 260514G
  colour: —
E. coli 260515Z
  colour: Red
E. coli 260521S
  colour: Red
E. coli 260522Z
  colour: Red
E. coli 260532S
  colour: Red
E. coli 260533G
  colour: Red
E. coli 260536Q
  colour: Red
E. coli 260537E
  colour: —
E. coli 260538H
  colour: —
E. coli 260539Y
  colour: Red
E. coli 260541R
  colour: Red
E. coli 260545G
  colour: Red
E. coli 260547N
  colour: Red
E. coli 260548Q
  colour: Red
E. coli 260549E
  colour: Red
E. coli 260553X
  colour: —
E. coli 260554D
  colour: Red
E. coli 260555L
  colour: Red
E. coli 260563B
  colour: Red
E. coli 260564R
  colour: Red
E. coli 260578D
  colour: —
E. coli 2603121P
  colour: —
E. coli 2604399E
  colour: Red
E. coli O157 non-toxigenic
  colour: —
In words
  colour of positive colonies: red colonies
